Data as given in patent US20260216198A1, “GPR35 MODULATORS” (ThirtyFiveBio Limited, priority 2023, published 2026).

target: T1, GPR35 (Homo sapiens, UniProt Q9HC97); assay: cellular GPR35 phospho-ERK HTRF assay (inhibition of lodoxamide-induced phospho-ERK signal); assay type: cell-based; conditions: GPR35-CHO-K1-mt aequorin-Gα16 cell line; agonist lodoxamide at EC80; read-out: Activity Group (IC50, inhibition of GPR35 agonist-induced phospho-ERK signal)
T1 construct: expressed in transfected cells; host or cells: CHO-K1 cells co-expressing mitochondrial aequorin and Gα16
T1 sequence (Q9HC97 whole entry): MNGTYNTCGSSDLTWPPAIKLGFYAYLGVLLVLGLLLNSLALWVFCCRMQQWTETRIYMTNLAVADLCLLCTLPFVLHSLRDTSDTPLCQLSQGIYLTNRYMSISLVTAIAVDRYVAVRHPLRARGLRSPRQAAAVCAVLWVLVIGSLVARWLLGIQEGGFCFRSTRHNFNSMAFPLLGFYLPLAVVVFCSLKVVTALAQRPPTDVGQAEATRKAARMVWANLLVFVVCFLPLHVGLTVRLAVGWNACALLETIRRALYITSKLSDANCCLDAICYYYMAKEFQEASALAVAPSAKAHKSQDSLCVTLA
In short: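 GPR35-CHO-K1-mt aequorin-Gα16 cells were stimulated with lodoxamide at its EC80. After lysis, phospho-ERK1/2 (Thr202/Tyr204) was read by HTRF sandwich with Eu-cryptate/d2 antibodies at 665 nm. IC50 is the modulator concentration giving 50% inhibition of the window between agonist-plus-vehicle and no-agonist controls.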

| SMILES | IC50 |
| --- | --- |
| Cc1ncc(-c2ccc(F)c(C(=O)Nc3ccc(OC(C)C4CC4)c(F)c3)c2)cc1C(=O)O (stereo not shown) [Example 92, 5-[3-[[4-(1-Cyclopropylethoxy)-3-fluoro-phenyl]carbamoyl]-4-fluoro-phenyl]-2-methyl-pyridine-3-carboxylic acid] | < 1000 nM |
| Cc1ncc(-c2ccc(F)c(C(=O)Nc3ccc(OC(C)C4CC4)c(C#N)c3)c2)cc1C(=O)O (stereo not shown) [Example 93, 5-[3-[[3-Cyano-4-(1-cyclopropylethoxy)phenyl]carbamoyl]-4-fluoro-phenyl]-2-methyl-pyridine-3-carboxylic acid] | 1000 to 10000 nM |
| CSc1ncc(C(=O)Nc2ccc(OCCc3ccccc3)cc2)cc1-c1cnc(C)c(C(=O)O)c1 [Example 94, 2-Methyl-5-[2-methylsulfanyl-5-[[4-(2-phenylethoxy)phenyl]carbamoyl]-3-pyridyl]pyridine-3-carboxylic acid] | 1000 to 10000 nM |
| COCCOc1ncc(C(=O)Nc2ccc(OCCc3ccccc3)cc2)cc1-c1cnc(C)c(C(=O)O)c1 [Example 95, 5-[2-(2-Methoxyethoxy)-5-[[4-(2-phenylethoxy)phenyl]carbamoyl]-3-pyridyl]-2-methyl-pyridine-3-carboxylic acid] | 1000 to 10000 nM |
| Cc1ncc(-c2cccc(C(=O)Nc3ccc(CS(=O)(=O)c4ccc(Cl)cc4)cc3)c2)cc1C(=O)O [Example 96, 5-[3-[[4-[(4-Chlorophenyl)sulfonylmethyl]phenyl]carbamoyl]phenyl]-2-methyl-pyridine-3-carboxylic acid] | < 1000 nM |
| Cc1ncc(-c2cccc(C(=O)Nc3ccc(CS(=O)(=O)c4cccc(Cl)c4)cc3)c2)cc1C(=O)O [Example 97, 5-[3-[[4-[(3-Chlorophenyl)sulfonylmethyl]phenyl]carbamoyl]phenyl]-2-methyl-pyridine-3-carboxylic acid] | 1000 to 10000 nM |

Results, then the compound that gave them:

| IC50 | SMILES |
| --- | --- |
| 1000 to 10000 nM | Cc1ncc(-c2cccc(C(=O)Nc3ccc(CS(=O)(=O)c4ccccc4Cl)cc3)c2)cc1C(=O)O [Example 98, 5-[3-[[4-[(2-Chlorophenyl)sulfonylmethyl]phenyl]carbamoyl]phenyl]-2-methyl-pyridine-3-carboxylic acid] |
| 1000 to 10000 nM | COc1ccc(S(=O)(=O)Cc2ccc(NC(=O)c3cccc(-c4cnc(C)c(C(=O)O)c4)c3)cc2)cc1 [Example 99, 5-[3-[[4-[(4-Methoxyphenyl)sulfonylmethyl]phenyl]carbamoyl]phenyl]-2-methyl-pyridine-3-carboxylic acid] |
| 1000 to 10000 nM | COc1cccc(S(=O)(=O)Cc2ccc(NC(=O)c3cccc(-c4cnc(C)c(C(=O)O)c4)c3)cc2)c1 [Example 100, 5-[3-[[4-[(3-Methoxyphenyl)sulfonylmethyl]phenyl]carbamoyl]phenyl]-2-methyl-pyridine-3-carboxylic acid] |
| 1000 to 10000 nM | Cc1ccc(S(=O)(=O)Cc2ccc(NC(=O)c3cccc(-c4cnc(C)c(C(=O)O)c4)c3)cc2)cn1 [Example 101, 2-Methyl-5-[3-[[4-[(6-methyl-3-pyridyl)sulfonylmethyl]phenyl]carbamoyl]phenyl]pyridine-3-carboxylic acid] |
